Assay results as given in article PMC10888717, “Identification of Novel Non-Nucleoside Inhibitors of Zika Virus NS5 Protein Targeting MTase Activity” (International Journal of Molecular Sciences, 2024).
Read-outs that look alike come from different tables or passages of the source.

How the values were obtained:
ZIKV NS5 MTase = molecular target: T1, ZIKV NS5 MTase (Zika virus, UniProt A0A024B7W1); test: ZIKV NS5 MTase radioactive filter-binding assay (2′-O-MTase activity); type: biochemical; conditions: at least two experiments; for IC50: read-out: IC50 (half-maximal inhibitory enzymatic concentration)
T1 construct: KJ776791.2, aa 4–278; His6 (N); made in house; host or cells: Escherichia coli T7 Express Iq
T1 sequence (A0A024B7W1 2524-2798): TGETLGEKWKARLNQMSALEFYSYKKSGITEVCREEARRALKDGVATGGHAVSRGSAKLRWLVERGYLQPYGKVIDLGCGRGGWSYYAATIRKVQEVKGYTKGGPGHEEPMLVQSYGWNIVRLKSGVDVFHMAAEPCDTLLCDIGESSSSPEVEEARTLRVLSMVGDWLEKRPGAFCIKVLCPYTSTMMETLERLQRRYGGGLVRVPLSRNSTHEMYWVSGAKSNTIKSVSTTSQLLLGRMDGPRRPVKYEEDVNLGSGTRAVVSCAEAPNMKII
Protocol: Selected compounds were evaluated in enzymatic inhibition assays against both ZIKV and DENV 2′-O-MTase activity (For details, see Figure S3 in Supplementary Materials). The screening of compounds at a concentration of 50 µM highlighted a higher inhibitory activity against ZIKV MTase. We thus focused our efforts on ZIKV and determined the IC50 values against ZIKV MTase.
Expression and purification of ZIKV NS5 MTase: The coding sequence of the ZIKV NS5 MTase domain (strain H/PF/2013, GenBank accession no. KJ776791.2, aa 4–278) was synthesized by Genscript and cloned into a pQE30 vector (Qiagen, Hilden, Germany) with an N-terminal His6 tag. The protein was expressed and purified following the procedures described in Coutard et al..
Briefly, after expression in Escherichia coli T7 Express Iq (New England BioLabs) in Terrific Broth at 17 °C overnight, bacterial pellets were resuspended in lysis buffer (50 mM Tris-HCl [pH 8], 300 mM NaCl, 5% glycerol, 0.1% Triton, 10 μg/mL DNase I, 2 tablets of EDTA-free antiprotease cocktail [Roche] and 0.25 mg/mL lysozyme). Following cell lysis and clarification, the protein was purified by affinity on immobilized metal affinity chromatography (IMAC, His prep column [GE Healthcare]), followed by size exclusion chromatography (Superdex S75 HR 16/20 column [GE Healthcare]). The NS5-MTase was concentrated and stored at −20 °C after adding glycerol to a final concentration of 40%.
Filter-binding assay: The transfer of tritiated methyl from ^[3H]SAM onto RNA substrate was monitored by a filter-binding assay (FBA), performed according to the method described previously. FBA was carried out in a reaction mixture [40 mM Tris-HCl (pH 8.0), 1 mM DTT, 2 μM SAM, and 0.1 μM 3H-SAM (Perkin Elmer, Shelton, CT, USA)] in the presence of 0.7 μM synthetic ^7mGpppAC4 and ZIKV NS5 MTase (500 nM). The enzyme was first mixed with an increasing concentration of inhibitors, previously suspended in dimethyl sulfoxide (DMSO), before the addition of RNA substrate and SAM, and then incubated at 30 °C. The final DMSO concentration in reactions was 5%. Reaction mixtures were stopped after 30 min incubation by their 10-fold dilution in ice-cold water. Samples were transferred to diethylaminoethyl (DEAE) filtermat (Perkin Elmer, Shelton, CT, USA) using a Filtermat Harvester (Packard Instruments, Meriden, CT, USA). The RNA-retaining mats were washed twice with 10 mM ammonium formate pH 8.0, twice with water, and once with ethanol before drying. They were soaked with scintillation fluid (Perkin Elmer, Shelton, CT, USA), and 3H-methyl transfer to the RNA substrates was determined using a Wallac MicroBeta TriLux Liquid Scintillation Counter (Perkin Elmer, Shelton, CT, USA). For IC50 measurements, values were normalized and fitted with Prism (GraphPad software version 10.1.1) using the following equation: Y = 100/(1 + ((X/IC50) ^ Hillslope)).

ZIKV [1] = test: ZIKV inhibitory viral plaque reduction assay in Vero E6 cells; type: cell-based, Zika virus; conditions: for IC50: Zika virus
[2] = Cytotoxicity assay (MTT) on Vero E6 cells; type: cell-based; conditions: African green monkey
Protocol: Compounds characterized by the best anti-enzymatic activity were tested against ZIKV in cellular assays. VERO E6 cells were infected with ZIKV at a multiplicity of infection (M.O.I.) of 0.1, and their activities were evaluated by a plaque reduction assay three days post-infection. Ribavirin was used as a reference compound. As reported in Table 2, compound 1, identified in the first screening, was unable to inhibit viral replication up to a 100 μM concentration. […] The cytotoxicity of the series was determined on the same cell line. […] Their selectivity indexes were calculated as the ratio between CC50 and IC50 values; the results highlight their promising safety profile.
Monolayers of 2.5 × 10^4 Vero E6 cells per well were grown in flat-bottom 96-well culture plates and allowed to adhere overnight. Then, when the cell layers were confluent, the medium was removed, the wells were washed twice with PBS, treated with 100 µL of DMEM with 10 µL DMSO alone (cell positive control) or with various concentrations of anti-NS5 inhibitory compounds under study (compound final concentrations of 100, 10, 1, 0.1, and 0.01 μM), and incubated for 3 days at 37 °C in a CO2. After treatment, an MTT (3-(4,5-dimethylthiazol-2-yl)-2,5-diphenyltetrazolium bromide) kit (Roche, Milan, Italy) was used according to the supplier’s instructions, and the absorbance of each well was determined using a microplate spectrophotometer at a wavelength of 570 nm. Cytotoxicity was calculated by dividing the average optical density of treated samples by the average of DMSO-treated samples (cell positive control).

ZIKV [3] = conditions: cited from earlier work
DENV MTase = DENV MTase enzymatic inhibition assay; type: biochemical, Dengue virus; conditions: read-out: IC50 against DENV MTase
Excerpt: Firstly, a pharmacophoric model was developed taking into consideration the most populated interactions (Figure 1C). The pharmacophore was used to perform a first screening, choosing molecules matching the pharmacophore features representing the interactions of the SAM adenine group and at least one of the two groups of features representing the interaction of SAM methionine moieties, with the aim of identifying compounds able to form interactions within both the adenine and the methionine subpockets of the SAM-binding site. The obtained results were then subjected to docking analysis using Glide XP, Glide SP, and GOLD (using the GoldScore fitness function). At the end of each docking procedure, a post-docking filter was applied to check whether the desired pharmacophoric interactions were maintained in the predicted binding modes of the docked compounds. Only the ligands for which a common binding mode matching the desired pharmacophore features was predicted by all the docking software were retained and then subjected to clustering and visual inspection. […]
Selected compounds were evaluated in enzymatic inhibition assays against both ZIKV and DENV 2′-O-MTase activity (For details, see Figure S3 in Supplementary Materials). […] We thus focused our efforts on ZIKV and determined the IC50 values against ZIKV MTase.

[4] = Metabolic stability in human liver microsomes; type: in vitro ADME; conditions: 1 h, 37 °C, three experiments
Protocol: The metabolic stability was investigated by incubating selected compounds with human liver microsomes (HLMs) for 1 h at 37 °C. The percentage of non-metabolized compounds and metabolites was analyzed by HPLC-UV-MS. […] HPLC analysis confirmed the presence of the oxidated metabolites in small percentages.
(§1) For the ADME property determination, an Agilent 1260 Infinity HPLC-DAD interfaced with an Agilent MSD 6130 (Agilent Technologies, Palo Alto, CA, USA) was used. Chromatographic conditions were optimized using a Phenomenex Kinetex C18-100 Å column (150 × 4.6 mm) with 5 µm particle size and gradient elution with a binary solution (eluent A: H2O; eluent B: ACN; both eluents were acidified with formic acid 0.1% v/v) at room temperature. The LC analyses started with 5% of B (from t = 0 to t = 1 min), then B was increased to 95% (from t = 1 to t = 10 min) and then kept at 95% (from t = 10 to t = 19 min) and finally returned to initial conditions in 1.0 min. The flow rate was 0.6 mL/min and the injection volume was 10 µL.
The test was performed as previously reported with minor modifications. Each compound was dissolved in DMSO and phosphate buffer (0.025 M, pH 7.4), and human liver microsomes (0.2 mg/mL) and a NADPH-regenerating system in MgCl2 48 mM were added to a final volume of 500 µL. This solution was incubated for 1 h at 37 °C and then the reaction was stopped and quenched using 1 mL of ACN. The reaction mixtures were then centrifuged (4000 rpm for 10 min) and the supernatant was taken, dried under nitrogen flow, and then resuspended in 100 µL of methanol. The parent drug and metabolites were subsequently determined using the chromatographic conditions described above. The percentage of non-metabolized compounds was calculated by comparison with reference solutions. The determination of metabolic stability for each compound was performed in three independent experiments.

[5] = Stability test in human plasma; type: in vitro ADME; conditions: pH 7.4, 37 °C, up to 24 h, read-out: Plasma Stab. (T1/2, h ± SD) (converted)
Protocol: Finally, compounds were incubated in human plasma at 37 °C for 24 h. […] Taken together, stability studies confirmed that the series is suitable for further development.
as §1
A stock solution of the target compound in DMSO (2 mM) was incubated in a test tube with pooled human plasma (55.7 mg protein/mL) and HEPES buffer (25 mM, 140 mM NaCl pH 7.4) up to a final volume of 1.0 mL. The mixture was incubated at 37 °C, and at set time points (0.0, 0.5, 1, 4, 8, 24 h), samples of 50 µL were taken, mixed with 400 µL of ACN to stop the reaction of plasmatic esterases, and centrifuged at 5000 rpm for 15 min. The supernatant was removed and analyzed using the LC-UV/MS method previously described. The half-life (t½) was calculated according to the following equation: t½=ln 2/k where k represents the substrate elimination constant. For each compound, the determination was performed in three independent experiments.

[6] = Vero C1008, read-out: IC50 ± SD (half-maximal inhibitory concentration, ZIKV plaque reduction)
[7] = VERO E6 cells, MTT, 3 days, read-out: CC50 ± SD (half-maximal cytotoxic concentration)

IC50 (ZIKV NS5 MTase) [µM]	SMILES	SI (Selectivity Index, ratio between CC50 and IC50) (ZIKV [1]; VERO E6 cells)	IC50 (ZIKV [1]; [6]) [µM]	CC50 at 3 days [2, 7] [µM]	also measured
46	O=C(Nc1ccc2c(c1)C(=O)NC2)c1cc2ccccc2s1 [Compound 13]	–	–	–	–
20	O=C(Nc1ccc2c(c1)C(=O)NC2)c1cc2cc([N+](=O)[O-])ccc2s1 [Compound 2]	–	–	–	–
34	NS(=O)(=O)c1cccc(NC(=O)c2cc3cc([N+](=O)[O-])ccc3s2)c1 [Compound 4]	–	–	–	–
–	NC(=O)c1ncn([C@@H]2O[C@H](CO)[C@@H](O)[C@H]2O)n1 [ribavirin, 1-β-d-Ribofuranosyl-1,2,4-Triazole-3-Carboxamide, reference compound]	1.05	–	–	IC50 (ZIKV [1]; Vero C1008, VERO E6 cells, ZIKV M.O.I. 0.1, at least two experiments, read-out: IC50 ± SD (half-maximal inhibitory concentration, ZIKV plaque reduction)): 95.5 ± 0.6 µM; CC50 at 3 days [2]: 100 ± 14 µM; EC50 against ZIKV (ZIKV [3]): high micromolar range
36	NC(=O)c1ccc(NC(=O)c2cc3ccccc3s2)cc1 [Compound 10]	–	–	–	–
37	NC(=O)c1ccc(NC(=O)c2cc3cc([N+](=O)[O-])ccc3s2)cc1 [Compound 5]	–	–	–	–
> 100	CN1C(=O)c2ccc(NC(=O)c3cc4ccccc4o3)cc2C1=O [Compound 9]	–	–	–	IC50 (half-maximal inhibitory enzymatic concentration) (ZIKV NS5 MTase): completely inactive

SMILES	IC50 (ZIKV NS5 MTase) [µM]	SI (Selectivity Index, ratio between CC50 and IC50) (ZIKV [1]; VERO E6 cells)	IC50 (ZIKV [1]; [6]) [µM]	CC50 at 3 days [2, 7] [µM]	also measured
O=C(Nc1ccc2c(c1)C(=O)NC2=O)c1cc2cc([N+](=O)[O-])ccc2s1 [Compound 1]	53	–	> 100	> 100	IC50 (DENV MTase): 69 µM
CN1C(=O)c2ccc(NC(=O)c3sc4ccccc4c3Cl)cc2C1=O [Compound 16]	13.1	>38.46	2.6 ± 0.2	> 100	–
Cc1cccc2cc(C(=O)Nc3ccc4c(c3)C(=O)N(C)C4=O)sc12 [Compound 20]	18.9	>15.15	6.6 ± 0.5	> 100	HLM Stab.% ± SD (percentage of non-metabolized compound) [4]: 98.40 ± 0.12%; half-life [5]: > 24 h
CN1C(=O)c2ccc(NC(=O)c3cc4cc([N+](=O)[O-])ccc4s3)cc2C1=O [Compound 3]	16.6	>3.49	28.6 ± 1.3	> 100	–
